Target: T1, EP4R (Homo sapiens, UniProt P35408)
T1 construct: Tango fusion cassette (only 'tango' is printed); expressed in transfected cells; host or cells: HTLA cells (tTA-dependent luciferase reporter, β-arrestin2-TEV fusion)
Assay: PRESTO-Tango β-arrestin2 recruitment assay
Type: cell-based
Conditions: for Ki: PRESTO-Tango Ki* (nM)

[1] = PRESTO-Tango IC50 (nM), antagonist mode, EC80 of PGE2
[2] = calculated using the Cheng Prusoff equation
[3] = PRESTO-Tango -logIC50, antagonist mode, EC80 of PGE2

T1 sequence (P35408 whole entry, the tested form may be a part): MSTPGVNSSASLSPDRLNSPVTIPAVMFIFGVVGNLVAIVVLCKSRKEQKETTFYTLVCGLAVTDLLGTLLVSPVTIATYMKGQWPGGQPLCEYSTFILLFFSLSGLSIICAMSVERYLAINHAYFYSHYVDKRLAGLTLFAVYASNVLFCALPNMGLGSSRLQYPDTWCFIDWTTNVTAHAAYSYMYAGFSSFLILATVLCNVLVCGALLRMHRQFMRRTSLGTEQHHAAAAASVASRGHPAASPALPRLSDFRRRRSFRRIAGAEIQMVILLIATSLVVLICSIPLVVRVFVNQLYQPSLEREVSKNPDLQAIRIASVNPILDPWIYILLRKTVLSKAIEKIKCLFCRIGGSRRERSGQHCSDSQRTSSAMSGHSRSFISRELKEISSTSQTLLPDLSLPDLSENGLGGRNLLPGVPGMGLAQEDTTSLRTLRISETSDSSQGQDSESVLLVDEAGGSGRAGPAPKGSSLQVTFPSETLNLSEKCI

Compound	IC50 [1]	Ki [2]	IC50 [3]	further results
O=C(O)C1CCC2(CC1)CC(Nc1ncnc3[nH]c4ncccc4c13)C2 (stereo not shown) [Compound 133, OC(=O)C1CCC2(CC(C2)NC=3N=CN=C4NC=5N=CC=CC5C34)CC1]	1090 nM	218 nM		
O=C(O)C1CCC2(CC1)CC(Nc1nc(C(F)(F)F)nc3ccccc13)C2 (stereo not shown) [Compound 90, OC(=O)C1CCC2(CC(C2)NC=3N=C(N=C4C=CC=CC34)C(F)(F)F)CC1]	3870 nM	774 nM		
Cc1cc(C(=O)NC2CCCC(C(=O)O)CC2)c(C)n1-c1ccccc1 (stereo not shown) [Compound 78, CC1=CC(C(=O)NC2CCCC(CC2)C(=O)O)=C(C)N1C=3C=CC=CC3]	7080 nM			Ki: 1420 nM
O=C(O)C1CCC2(CC1)CC(Nc1ncnc3sc4c(c13)CCC4)C2 (stereo not shown) [Compound 91, OC(=O)C1CCC2(CC(C2)NC=3N=CN=C4SC=5CCCC5C34)CC1]	4030 nM			Ki: 807 nM
CN(c1ncnc2[nH]c3ccccc3c12)C1CC2(CCC(C(=O)O)CC2)C1 (stereo not shown) [Compound 76, CN(C1CC2(C1)CCC(CC2)C(=O)O)C=3N=CN=C4NC=5C=CC=CC5C34]				IC50 (PRESTO-Tango IC50 (nM)): 1170 nM; Ki: 234 nM
Cc1cc2c(NC3CC4(CCC(C(=O)O)CC4)C3)ncnc2s1 (stereo not shown) [Compound 88, CC1=CC=2C(NC3CC4(C3)CCC(CC4)C(=O)O)=NC=NC2S1]				IC50 (PRESTO-Tango -logIC50): 708000 nM; IC50 (PRESTO-Tango IC50 (nM)): > 10000 nM
O=C(N[C@@H]1CC[C@@H](C(=O)O)CCC1(F)F)c1nn(-c2ccccc2)c2c1CCC2 [Compound 125, OC(=O)[C@@H]1CC[C@@H](NC(=O)C2=NN(C=3CCCC23)C=4C=CC=CC4)C(F)(F)CC1]	1640 nM	328 nM		
Cc1cc(C(=O)NC2CCCC(C(=O)O)CC2)c(C)n1-c1ccc(F)cc1 (stereo not shown) [Compound 119, CC1=CC(C(=O)NC2CCCC(CC2)C(=O)O)=C(C)N1C=3C=CC(F)=CC3]	> 10000 nM		25900 nM	
O=C(NC1CCCC(C(=O)O)CC1)c1nn(-c2ccccc2)c2c1CCC2 (stereo not shown) [Compound 98, OC(=O)C1CCCC(CC1)NC(=O)C2=NN(C=3CCCC23)C=4C=CC=CC4]	2060 nM	411 nM		
O=C(NC1CCCC(C(=O)O)CC1)c1csc(Cc2ccccc2)c1 (stereo not shown) [Compound 107, OC(=O)C1CCCC(CC1)NC(=O)C2=CSC(CC=3C=CC=CC3)=C2]	> 10000 nM		22900 nM	
O=C(NC1CCCC(C(=O)O)CC1)c1csc(C2CCCCC2)n1 (stereo not shown) [Compound 106, OC(=O)C1CCCC(CC1)NC(=O)C2=CSC(=N2)C3CCCCC3]	> 10000 nM		23400 nM	
O=C(NC1CCCC(C(=O)O)CC1)c1nn(-c2ccc(F)cc2)c2c1CCC2 (stereo not shown) [Compound 116, OC(=O)C1CCCC(CC1)NC(=O)C2=NN(C=3CCCC23)C=4C=CC(F)=CC4]	> 10000 nM		17400 nM	
O=C(O)C1CCC2(CC1)CC(Nc1ncnc3sc(-c4ccccc4)cc13)C2 (stereo not shown) [Compound 85, OC(=O)C1CCC2(CC(C2)NC=3N=CN=C4SC(=CC34)C=5C=CC=CC5)CC1]	> 10000 nM		776000 nM	
Cc1cc(C(=O)NC2CCCC(C(=O)O)CC2)c(C)n1-c1ccccc1F (stereo not shown) [Compound 129, CC1=CC(C(=O)NC2CCCC(CC2)C(=O)O)=C(C)N1C=3C=CC=CC3F]	> 10000 nM		479000 nM	
O=C(N[C@@H]1CC[C@@H](C(=O)O)CCC1(F)F)c1nn(-c2cccc(F)c2)c2c1CCC2 [Compound 121, OC(=O)[C@@H]1CC[C@@H](NC(=O)C2=NN(C=3CCCC23)C=4C=CC=C(F)C4)C(F)(F)CC1]	1010 nM	202 nM	1000 nM	
O=C(NC1CCCC(C(=O)O)CC1)c1nn(-c2cccc(F)c2)c2c1CCC2 (stereo not shown) [Compound 123, OC(=O)C1CCCC(CC1)NC(=O)C2=NN(C=3CCCC23)C=4C=CC=C(F)C4]		293 nM		IC50 (PRESTO-Tango IC50 (nM)): 1470 nM
CN(C(=O)c1nn(-c2ccccc2)c2c1CCC2)C1CCCC(C(=O)O)CC1 (stereo not shown) [Compound 131, CN(C1CCCC(CC1)C(=O)O)C(=O)C2=NN(C=3CCCC23)C=4C=CC=CC4]	1880 nM			Ki: 376 nM
Cc1cc(C(=O)NC2CCCC(C(=O)O)CC2)c(C)n1-c1cccc(F)c1 (stereo not shown) [Compound 126, CC1=CC(C(=O)NC2CCCC(CC2)C(=O)O)=C(C)N1C=3C=CC=C(F)C3]				PRESTO-Tango -logIC50: unstable; IC50 (PRESTO-Tango IC50 (nM)): > 10000 nM

From publication PMC10700596 (Nature Communications, 2023)
